The text below walks through data of paper PMC9804781, “Identification of a Novel Pseudo‐Natural Product Type IV IDO1 Inhibitor Chemotype” (Angewandte Chemie (International Ed. in English), 2022).

Data set [1] is described as follows: Stability of Apoxidole-1 in Serum. The conditions noted are these: 400 µM in FBS, 37°C, up to 48 h. Type of data set: in vitro ADME. As to the method: transparent microplates (UV-STAR®, Greiner AG, AT). Subsequently, absorbance spectra from 250 nm to 550 nm were recorded on the Spark® Multimode Microplate Reader (Tecan, AT).
SKOV-3 cells (1.25 x 10^6 cells/flask) were seeded in two T75 tissue culture flasks and incubated for 24 h prior to addition of 17.6 ng/mL IFN-γ and 10 µM succinylacetone (SA, heme synthesis inhibitor). After 24 h, cells were treated with the compound (C) or DMSO (V, vehicle) for 15 min at 37°C. Cells were detached with trypsin/EDTA and washed thrice in cold PBS after resuspension in cold PBS. C- and V-treated samples were distributed equally into ten tubes each and subjected to heating at different temperatures in the MasterCycler EpGradient S (Eppendorf SE, DE). Afterwards, NP-40 alternative was added to a final concentration of 0.4% (v/v) and cells were lysed by five consecutive freeze/thaw cycles. Soluble fractions were separated from denatured proteins by centrifugation at 100,000 x g and 4°C for 20 min. […]
A truncated version of recombinant human GST-IDO1 (rhIDO1) consisting of amino acids 5-400 of the 403 amino acid-long full-length human IDO1 was expressed in E. coli and purified as published previously.[15] The heme cofactor was released from IDO1 by overnight incubation with 2-mercaptoethanesulfonate (MESNA) as described previously[18] and heme occupancy was determined by UV/Vis spectrophotometry. […]

The next data set has as its system IDO1 protein levels. The data set is described as follows: IDO1 protein levels (immunoblotting, In-Cell Western). The conditions noted are these: immunoblotting (HeLa, IFN-γ, 24 h) and in-Cell western. Type of data set: cell-based. As to the method: Kit (QIAGEN, DE) following the manufacturer’s procedure. DNA was removed on column by […]
DNase digestion with RNase-free DNase Set (QIAGEN, DE) according to the manufacturer’s […]
instructions. Following the manufacturer’s protocol, cDNA templates were synthesized from […]
800 ng total RNA using the QuantiTect Reverse Transcription Kit (QIAGEN, DE).
The expression levels of the IDO1 gene and the reference GAPDH were assessed by real-time […]
quantitative PCR (qPCR). Therefore, 120 ng cDNA was amplified using 500 nM of gene-specific […]
primers and SsoAdvanced Universal SYBR Green Supermix (Bio-Rad Laboratories, DE) in a total […]
volume of 10 µL for 50 cycles using the CFX96 Touch™ Real-Time PCR Detection System (Bio- […]
Rad Laboratories, DE). Relative IDO1 expression levels were calculated using the ΔΔCt method […]
with GAPDH as reference gene[17] and represented using GraphPad Prism 9.0 (GraphPad […]
and homogenized by sonication. Protein concentration was determined using the DC Protein […]
11 µM rhIDO1 was incubated with compounds at indicated concentrations for 60 min at 37°C in 50 mM potassium phosphate buffer (16.9 mM K2HPO4, 33.1 mM, KH2PO4, pH 6.5). The thermal protein stability from 20°C to 90°C (1°C/min) was measured by means of the intrinsic tryptophan/tyrosine fluorescence using the Prometheus™ NT.48 (NanoTemper® Technologies, […]

Structures are written as SMILES.

In the case of `CCOC(=O)C1=CC[C@](C(=O)OC)(c2cc3ccccc3n2C)N(S(=O)(=O)c2ccc(C)cc2)[C@@H]1C(=O)OC(C)(C)C` [Compound 3d], the “integrity of the compound in serum” value in data set [1] was “confirmed”. For the same molecule, the “level of the IDO1 protein” value with IDO1 protein levels was “did not alter the level of the IDO1 protein”.
